This note sets out measurements from patent publication US7972610B2, “Antimicrobial compounds” (University of Strathclyde, priority 2005, dated 2011).

For the assay, the system named is A. castellanii. Nature of the assay: alamarBlue assay of susceptibility of A. castellanii to glyphosate. Type of assay: cell-based. The conditions noted are these: Acanthamoeba castellanii; A. castellanii (Neff strain) trophozoites, 96 hr incubation, glyphosate 9 mM to 0.27 μM, FIG. 1; read-out: IC50 (inhibition of A. castellanii, percent alamarBlue reduction relative to untreated control cultures). As to the method:
Acanthamoeba polyphaga (Strain No. 1501/18) were obtained from CCAP (Cumbria, UK). Acanthamoeba castellanii (Neff strain) was kindly obtained from Keith Vickerman (Glasgow, UK). A. castellanii and A. polyphaga trophozoites were grown in (a) Rich media containing […] (Fluka, UK) and 0.9% maltose (Sigma, UK) and supplemented with 1% Penicillin, Streptomycin and Amphotericin B (All Sigma, UK) or (b) modified 11 containing 20% Rich media. Acanthamoeba spp. were incubated at room temperature in 75 cm^2 tissue culture flasks until 90-95% confluence, then harvested or sub-cultured using Accutase (Sigma, UK).
The susceptibility of the A. castellanii to glyphosate as assessed by the almarBlue assay. The susceptibility of A. castellanii to glyphosate was determined by a modification of the method described by McBride et al., (2005). A. castellanii cells were grown in 75 cm^2 flasks until 90-95% confluence and harvested using Accutase (Sigma, UK). […] AlamarBlue reduction was assessed as previously described. The percent inhibition of almarBlue reduction was calculated using the formula: (εox)λAλ1−(εox)λ1Aλ. of treated Acanthamoeba/(εox)λA°λ1−(εox)λ1A°λ of untreated Acanthamoeba×100
[where: °λ1=absorbance of untreated control with alamarBlue at 570 nm); °λ2=absorbance of untreated control with alamarBlue at 600 nm)]. […]

pIC50: −log10 of the molar value.

Regarding `O=C(O)CNCP(=O)(O)O` [Glyphosate, N-(phosphonomethyl)glycine], the pIC50 is 5.36 to 5.66.
